Tests used:
A. thaliana MTR kinase = target: T1, A. thaliana MTR kinase (Arabidopsis thaliana, UniProt Q9C6D2); assay: X-ray crystallography, […] Å, co-crystallization; type: binding; conditions: crystal soaked at pH 6.5
T1 construct: gene MTK; full length, 420 residues; homodimer
T1 sequence (Q9C6D2 1-420): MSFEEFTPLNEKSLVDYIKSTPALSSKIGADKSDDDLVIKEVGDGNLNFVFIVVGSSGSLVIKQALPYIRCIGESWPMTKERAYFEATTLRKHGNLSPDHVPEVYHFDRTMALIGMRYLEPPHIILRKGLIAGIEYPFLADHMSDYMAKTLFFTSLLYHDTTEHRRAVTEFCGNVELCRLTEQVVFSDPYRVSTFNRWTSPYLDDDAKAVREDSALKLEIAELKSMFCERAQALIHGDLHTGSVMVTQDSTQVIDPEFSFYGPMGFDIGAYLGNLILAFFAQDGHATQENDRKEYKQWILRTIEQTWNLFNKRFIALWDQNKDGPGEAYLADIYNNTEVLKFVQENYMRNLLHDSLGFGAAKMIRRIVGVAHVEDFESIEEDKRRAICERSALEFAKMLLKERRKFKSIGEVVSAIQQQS

[1] = target: the molecule itself; assay: SEC; size exclusion chromatography of A. thaliana MTR kinase, data not shown; conditions not given

CSC[C@H]1OC(O)[C@H](O)[C@@H]1O (stereo partly drawn) [MTR]
X-ray crystallography, 1.9 Å, co-crystallization (A. thaliana MTR kinase; active site, co-crystallized with ATPγS and MTR, Mg(II) and ADP bound, alpha anomer): coordinates of the A. thaliana MTR kinase in complex with ADP and MTR

Nc1ncnc2c1ncn2[C@@H]1O[C@H](COP(=O)(O)OP(=O)(O)O)[C@@H](O)[C@H]1O [ADP]
X-ray crystallography, 1.9 Å, co-crystallization (A. thaliana MTR kinase; nucleotide site, from ATPγS hydrolysed during co-crystallization, two Mg(II), MTR bound): coordinates of the A. thaliana MTR kinase in complex with ADP and MTR

B1: Arabidopsis thaliana 5-methylthioribose kinase (enzyme, UniProt Q9C6D2 1-420, looked up)
chain: T1 sequence (Q9C6D2 1-420)
notes: 5-methylthioribose (MTR) kinase of Arabidopsis thaliana, 420 residues; residues 1 and 420 are named as part of the crystallised protein (not modelled); also called A. thaliana MTR kinase; MTR kinase
stoichiometry N [1]: 2
